In patent US9834571B2, “Compounds for inhibiting cell proliferation in EGFR-driven cancers” (ARIAD Pharmaceuticals, Inc., priority 2012, dated 2017):
Read-outs that look alike come from different tables or passages of the source.

Columns and labels:
[1] = tested on: BaF3 cells expressing wildtype EGFR; test: Antiproliferative activity (MTT) against control BaF3 cells expressing wildtype EGFR; assay type: cell-based; details: Mus musculus
Method in brief: (§1)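 Compounds were tested on BaF3 cells bearing target EGFR mutations and on control BaF3 cells with wildtype EGFR; viability was then determined by MTT.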

[2] = biological target: T1, BaF3 cells expressing the target EGFR mutations (Homo sapiens, UniProt P00533, T790M, cells depend on it, form not given); test: Antiproliferative activity (MTT) against BaF3 cells expressing the target EGFR mutations; assay type: cell-based; details: BAF3 EGFR DEL T790M PURO POOL cells, read-out: IC50, BAF3 EGFR DEL T790M PURO POOL
T1 construct: IC50, BAF3 EGFR DEL T790M PURO POOL; other: BAF3 EGFR DEL T790M PURO POOL cells, MTT; other: BAF3 EGFR DEL T790M PURO POOL cells; MTT
T1 sequence (P00533 with tags, fused parts or gaps DEL746-750/T790M, form open): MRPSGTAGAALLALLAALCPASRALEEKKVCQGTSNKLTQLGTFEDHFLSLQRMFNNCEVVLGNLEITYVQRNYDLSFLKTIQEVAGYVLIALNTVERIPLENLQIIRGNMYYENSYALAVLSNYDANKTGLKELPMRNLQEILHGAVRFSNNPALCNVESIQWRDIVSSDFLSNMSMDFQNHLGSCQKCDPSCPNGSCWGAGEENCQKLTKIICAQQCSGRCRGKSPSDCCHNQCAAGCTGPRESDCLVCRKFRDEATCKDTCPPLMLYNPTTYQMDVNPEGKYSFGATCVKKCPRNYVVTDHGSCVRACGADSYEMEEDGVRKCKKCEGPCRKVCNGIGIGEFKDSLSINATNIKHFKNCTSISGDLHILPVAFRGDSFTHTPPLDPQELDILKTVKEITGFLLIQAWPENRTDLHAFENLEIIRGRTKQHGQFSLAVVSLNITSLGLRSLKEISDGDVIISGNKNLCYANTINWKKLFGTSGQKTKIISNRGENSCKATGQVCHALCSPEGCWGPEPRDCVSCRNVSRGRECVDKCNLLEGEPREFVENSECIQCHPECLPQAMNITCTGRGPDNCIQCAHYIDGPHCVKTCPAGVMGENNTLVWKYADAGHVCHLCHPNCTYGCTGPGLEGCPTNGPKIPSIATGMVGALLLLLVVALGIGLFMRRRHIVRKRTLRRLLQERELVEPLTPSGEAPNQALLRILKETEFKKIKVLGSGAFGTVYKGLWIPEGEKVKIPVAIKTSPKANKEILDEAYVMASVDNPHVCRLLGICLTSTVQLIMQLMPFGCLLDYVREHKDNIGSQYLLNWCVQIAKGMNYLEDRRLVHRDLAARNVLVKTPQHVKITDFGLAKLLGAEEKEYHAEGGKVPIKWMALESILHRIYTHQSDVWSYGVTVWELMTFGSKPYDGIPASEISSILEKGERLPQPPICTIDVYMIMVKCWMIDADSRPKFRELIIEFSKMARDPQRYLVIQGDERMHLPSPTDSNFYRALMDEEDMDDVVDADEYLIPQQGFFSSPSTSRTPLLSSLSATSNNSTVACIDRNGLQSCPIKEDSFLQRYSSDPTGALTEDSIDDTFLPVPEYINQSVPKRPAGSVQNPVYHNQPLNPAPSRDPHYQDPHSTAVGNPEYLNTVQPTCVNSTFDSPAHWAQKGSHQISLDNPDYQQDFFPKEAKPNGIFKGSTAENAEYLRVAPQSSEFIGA
Method in brief: as §1

[3] = biological target: T2, BaF3 cells expressing the target EGFR mutations (Homo sapiens, UniProt P00533, T790M/L858R, cells depend on it); test: as above; assay type: cell-based; details: BAF3 EGFR L858R-T790M PURO POOL cells, read-out: IC50, BAF3 EGFR L858R-T790M PURO POOL
T2 construct: IC50, BAF3 EGFR L858R-T790M PURO POOL; other: BAF3 EGFR L858R-T790M PURO POOL cells, MTT; IC50, BAF3 EGFR L858R-T790M PURO POOL; other: BAF3 EGFR L858R-T790M PURO POOL cells; MTT
T2 sequence (P00533 whole entry T790M/L858R): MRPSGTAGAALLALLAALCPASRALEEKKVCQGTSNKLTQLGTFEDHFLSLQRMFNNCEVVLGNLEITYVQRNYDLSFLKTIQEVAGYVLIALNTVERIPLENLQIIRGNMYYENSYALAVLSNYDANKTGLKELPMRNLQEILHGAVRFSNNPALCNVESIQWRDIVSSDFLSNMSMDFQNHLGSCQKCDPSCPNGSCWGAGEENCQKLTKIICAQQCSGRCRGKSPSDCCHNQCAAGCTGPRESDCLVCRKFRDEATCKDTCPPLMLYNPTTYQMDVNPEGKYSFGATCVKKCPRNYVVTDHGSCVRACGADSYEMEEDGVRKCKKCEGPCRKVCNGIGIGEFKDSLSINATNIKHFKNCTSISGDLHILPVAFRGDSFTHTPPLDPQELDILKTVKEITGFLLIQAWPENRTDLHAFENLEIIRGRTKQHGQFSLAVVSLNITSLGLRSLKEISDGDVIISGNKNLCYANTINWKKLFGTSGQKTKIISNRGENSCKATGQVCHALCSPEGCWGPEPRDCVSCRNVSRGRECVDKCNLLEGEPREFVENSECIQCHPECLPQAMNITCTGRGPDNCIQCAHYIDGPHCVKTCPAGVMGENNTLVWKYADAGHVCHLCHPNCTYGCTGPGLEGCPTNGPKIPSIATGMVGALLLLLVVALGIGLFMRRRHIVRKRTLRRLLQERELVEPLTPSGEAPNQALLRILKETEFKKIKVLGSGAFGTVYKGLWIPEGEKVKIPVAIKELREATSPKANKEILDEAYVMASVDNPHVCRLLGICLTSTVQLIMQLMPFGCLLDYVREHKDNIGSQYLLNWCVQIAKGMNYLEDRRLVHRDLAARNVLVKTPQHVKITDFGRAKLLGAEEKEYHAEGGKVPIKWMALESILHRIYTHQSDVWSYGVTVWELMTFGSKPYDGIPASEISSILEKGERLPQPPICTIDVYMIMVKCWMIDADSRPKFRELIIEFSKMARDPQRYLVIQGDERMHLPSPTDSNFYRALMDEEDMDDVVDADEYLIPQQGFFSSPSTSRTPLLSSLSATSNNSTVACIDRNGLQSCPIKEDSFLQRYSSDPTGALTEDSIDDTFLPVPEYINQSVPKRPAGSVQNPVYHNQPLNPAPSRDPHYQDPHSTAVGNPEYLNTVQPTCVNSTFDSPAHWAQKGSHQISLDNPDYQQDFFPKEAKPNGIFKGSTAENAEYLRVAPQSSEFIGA
Method in brief: as §1

[4] = biological target: human EGFR (native sequence) (Homo sapiens, UniProt P00533); test: Kinase inhibitory activity against human EGFR (native sequence); assay type: biochemical; details: 10 μM ATP, read-out: IC50 for kinase inhibition, EGFR
Method in brief: (§2)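 Singlicate 10 pt curves; top conc. 3 μM; ATP 10 μM.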

EGFR L858R = EGFR L858R (Homo sapiens, UniProt P00533, L858R); test: Kinase inhibitory activity against EGFR bearing the L858R mutation; assay type: biochemical; details: 10 μM ATP, read-out: IC50 for kinase inhibition, EGFR L858R
EGFR L858R, sequence (P00533 25-1210 L858R): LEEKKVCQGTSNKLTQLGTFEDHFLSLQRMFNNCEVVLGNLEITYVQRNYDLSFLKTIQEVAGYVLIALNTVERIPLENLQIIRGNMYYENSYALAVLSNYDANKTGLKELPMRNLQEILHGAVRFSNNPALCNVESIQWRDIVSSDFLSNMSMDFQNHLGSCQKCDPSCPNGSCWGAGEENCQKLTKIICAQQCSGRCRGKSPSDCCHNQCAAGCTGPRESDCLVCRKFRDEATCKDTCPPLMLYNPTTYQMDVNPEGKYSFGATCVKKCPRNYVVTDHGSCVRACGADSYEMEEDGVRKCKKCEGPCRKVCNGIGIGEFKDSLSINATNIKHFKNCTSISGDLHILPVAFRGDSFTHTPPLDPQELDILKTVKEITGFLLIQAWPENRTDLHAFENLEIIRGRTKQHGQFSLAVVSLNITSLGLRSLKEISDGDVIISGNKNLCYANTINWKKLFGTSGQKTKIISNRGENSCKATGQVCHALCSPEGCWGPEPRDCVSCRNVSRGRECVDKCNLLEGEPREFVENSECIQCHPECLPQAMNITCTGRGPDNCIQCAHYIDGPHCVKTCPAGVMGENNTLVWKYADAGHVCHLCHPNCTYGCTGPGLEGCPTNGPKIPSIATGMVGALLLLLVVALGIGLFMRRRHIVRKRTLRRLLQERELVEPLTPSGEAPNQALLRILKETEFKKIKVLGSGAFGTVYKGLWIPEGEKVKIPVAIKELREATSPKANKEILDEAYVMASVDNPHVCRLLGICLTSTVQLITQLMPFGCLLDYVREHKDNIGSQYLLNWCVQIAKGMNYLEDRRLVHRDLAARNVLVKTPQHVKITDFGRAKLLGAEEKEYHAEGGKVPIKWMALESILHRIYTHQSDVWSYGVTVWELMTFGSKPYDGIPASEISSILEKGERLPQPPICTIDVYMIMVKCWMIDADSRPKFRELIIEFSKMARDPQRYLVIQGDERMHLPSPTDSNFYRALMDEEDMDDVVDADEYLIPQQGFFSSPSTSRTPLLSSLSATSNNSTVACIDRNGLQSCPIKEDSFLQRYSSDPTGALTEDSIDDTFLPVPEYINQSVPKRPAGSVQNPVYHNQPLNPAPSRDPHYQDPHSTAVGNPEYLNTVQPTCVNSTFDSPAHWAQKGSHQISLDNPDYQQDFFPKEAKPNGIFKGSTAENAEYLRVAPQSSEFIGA
Method in brief: as §2

EGFR L858R/T790M = EGFR L858R/T790M (Homo sapiens, UniProt P00533, L858R/T790M); test: Kinase inhibitory activity against EGFR bearing the L858R/T790M double mutation; assay type: biochemical; details: 10 μM ATP, read-out: IC50 for kinase inhibition, EGFR L858R T790M
EGFR L858R/T790M, sequence (P00533 25-1210 T790M/L858R): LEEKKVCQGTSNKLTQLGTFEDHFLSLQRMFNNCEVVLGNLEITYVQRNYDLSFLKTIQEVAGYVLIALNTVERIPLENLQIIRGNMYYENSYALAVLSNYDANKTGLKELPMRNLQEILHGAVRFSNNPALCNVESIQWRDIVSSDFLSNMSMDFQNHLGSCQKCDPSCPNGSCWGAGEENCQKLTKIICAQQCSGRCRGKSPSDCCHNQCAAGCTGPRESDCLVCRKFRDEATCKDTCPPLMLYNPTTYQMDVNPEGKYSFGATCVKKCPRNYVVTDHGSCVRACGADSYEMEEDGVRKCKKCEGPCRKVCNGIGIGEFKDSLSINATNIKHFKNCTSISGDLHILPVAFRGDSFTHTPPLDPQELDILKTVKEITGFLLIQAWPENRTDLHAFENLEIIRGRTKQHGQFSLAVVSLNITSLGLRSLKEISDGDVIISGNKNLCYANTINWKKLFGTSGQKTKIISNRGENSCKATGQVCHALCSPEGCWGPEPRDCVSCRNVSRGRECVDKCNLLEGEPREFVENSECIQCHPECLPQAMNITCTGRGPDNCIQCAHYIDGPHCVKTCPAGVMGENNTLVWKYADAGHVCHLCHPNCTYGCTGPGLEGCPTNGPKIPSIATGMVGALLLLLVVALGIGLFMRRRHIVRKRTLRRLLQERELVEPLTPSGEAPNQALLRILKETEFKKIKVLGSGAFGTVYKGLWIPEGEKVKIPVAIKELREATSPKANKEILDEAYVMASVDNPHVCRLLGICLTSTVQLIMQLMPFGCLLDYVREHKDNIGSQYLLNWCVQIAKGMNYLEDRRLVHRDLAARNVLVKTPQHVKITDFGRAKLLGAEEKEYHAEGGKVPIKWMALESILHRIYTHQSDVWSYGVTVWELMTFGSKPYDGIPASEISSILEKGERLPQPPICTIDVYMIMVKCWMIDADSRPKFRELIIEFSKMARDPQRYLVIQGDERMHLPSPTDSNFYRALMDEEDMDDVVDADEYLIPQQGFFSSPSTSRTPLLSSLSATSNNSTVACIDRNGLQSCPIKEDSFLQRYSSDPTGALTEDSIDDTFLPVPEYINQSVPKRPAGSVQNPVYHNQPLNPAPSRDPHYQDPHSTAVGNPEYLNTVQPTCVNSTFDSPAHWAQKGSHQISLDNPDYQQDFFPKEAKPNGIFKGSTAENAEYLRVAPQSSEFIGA
Method in brief: as §2

[5] = EGFR L858R/T790M double mutation
[6] = 10 pt curves, 3 μM top concentration

SMILES	IC50 ([1]; BAF3 PARENTAL cells (control)) [nM]	GI50 [2] [nM]	GI50 [3] [nM]	IC50 ([4]; human EGFR native sequence) [nM]	IC50 (EGFR L858R; EGFR L858R) [nM]	IC50 (EGFR L858R/T790M; [5]) [nM]	IC50 ([1]; BAF3 parental cells) [nM]	IC50 [4, 6] [nM]	IC50 (EGFR L858R; [6]) [nM]	IC50 (EGFR L858R/T790M; [6]) [nM]
C=CC(=O)Nc1cc(Nc2ncc(Cl)c(Nc3ccccc3P(C)(C)=O)n2)c(OC)cc1N1CCC(N2CCC(O)CC2)C1 (stereo not drawn) [Example 39, N-(5-((5-chloro-4-((2-(dimethylphosphoryl)phenyl)amino)pyrimidin-2-yl)amino)-2-(3-(4-hydroxypiperidin-1-yl)pyrrolidin-1-yl)-4-methoxyphenyl)acrylamide]	≥ 250	101 to 250	≥ 250	< 50	< 50	< 50	–	–	–	–
C=CC(=O)Nc1cc(Nc2ncc(Cl)c(Nc3ccccc3P(C)(C)=O)n2)c(OC)cc1OCCCN1CCOCC1 [Example 5, N-(5-((5-chloro-4-((2-(dimethylphosphoryl)phenyl)amino)pyrimidin-2-yl)amino)-4-methoxy-2-(3-morpholinopropoxy)phenyl)acrylamide]	≥ 250	101 to 250	101 to 250	101 to 250	< 50	< 50	–	–	–	–
COc1ccc(NC(=O)/C=C/Cl)cc1Nc1ncc(Cl)c(Nc2ccccc2P(C)(C)=O)n1 [Example 78, (E)-3-chloro-N-(3-((5-chloro-4-((2-(dimethylphosphoryl)phenyl)amino)pyrimidin-2-yl)amino)-4-methoxyphenyl)acrylamide]	≥ 250	< 50	< 50	< 50	< 50	< 50	–	–	–	–
C=CC(=O)Nc1cc(Nc2ncc(Cl)c(Nc3ccccc3P(C)(C)=O)n2)c(OC)cc1OCC1CCOCC1 [Example 6, N-(5-((5-chloro-4-((2-(dimethylphosphoryl)phenyl)amino)pyrimidin-2-yl)amino)-4-methoxy-2-((tetrahydro-2H-pyran-4-yl)methoxy)phenyl)acrylamide]	≥ 250	50 to 100	101 to 250	≥ 250	< 50	50 to 100	–	–	–	–
C=CC(=O)Nc1cc(Nc2ncc(Cl)c(Nc3ccccc3P(C)(C)=O)n2)c(OC)cc1N1CC[C@H](N(C)C)C1 (stereo in doubt) [Example 29, rac-(R)-N-(5-((5-chloro-4-((2-(dimethylphosphoryl)phenyl)amino)pyrimidin-2-yl)amino)-2-(3-(dimethylamino)pyrrolidin-1-yl)-4-methoxyphenyl)acrylamide]	≥ 250	< 50	< 50	< 50	< 50	< 50	–	–	–	–
COc1cc(F)c(NC(=O)C#CC(C)(C)N2CCCC2)cc1Nc1ncc(Cl)c(Nc2ccccc2P(C)(C)=O)n1 [Example 90, N-(5-((5-chloro-4-((2-(dimethylphosphoryl)phenyl)amino)pyrimidin-2-yl)amino)-2-fluoro-4-methoxyphenyl)-4-methyl-4-(pyrrolidin-1-yl)pent-2-ynamide]	≥ 250	< 50	< 50	< 50	< 50	< 50	–	–	–	–
C=CC(=O)Nc1cc(Nc2ncc(Cl)c(Nc3ccccc3P(C)(C)=O)n2)c(OC)cc1OCC1CCN(C)CC1 [Example 3, N-(5-((5-chloro-4-((2-(dimethylphosphoryl)phenyl)amino)pyrimidin-2-yl)amino)-4-methoxy-2-((1-methylpiperidin-4-yl)methoxy)phenyl)acrylamide]	≥ 250	101 to 250	≥ 250	50 to 100	< 50	< 50	–	–	–	–
C=CC(=O)Nc1cc(Nc2ncc(Cl)c(Nc3ccccc3P(C)(C)=O)n2)c(OC)cc1C#CCN(C)C1CCCC1 [Example 168, N-(5-((5-chloro-4-((2-(dimethylphosphoryl)phenyl)amino)pyrimidin-2-yl)amino)-2-(3-(cyclopentyl(methyl)amino)prop-1-yn-1-yl)-4-methoxyphenyl)acrylamide]	–	< 50	< 50	–	–	–	< 50	< 50	< 50	< 50
COc1ccc(NC(=O)CCl)cc1Nc1ncc(C)c(Nc2ccccc2P(C)(C)=O)n1 [Example 141, 2-chloro-N-(3-((4-((2-(dimethylphosphoryl)phenyl)amino)-5-methylpyrimidin-2-yl)amino)-4-methoxyphenyl)acetamide]	–	< 50	< 50	–	–	–	≥ 250	< 50	< 50	< 50
C=C(CN1CCN(C)CC1)C(=O)Nc1ccc(OC)c(Nc2ncc(Cl)c(Nc3ccccc3P(C)(C)=O)n2)c1 [Example 49, N-(3-((5-chloro-4-((2-(dimethylphosphoryl)phenyl)amino)pyrimidin-2-yl)amino)-4-methoxyphenyl)-2-((4-methylpiperazin-1-yl)methyl)acrylamide]	≥ 250	< 50	< 50	< 50	< 50	< 50	–	–	–	–
COc1ccc(NC(=O)/C=C/C2(N)CC2)cc1Nc1ncc(Cl)c(Nc2ccccc2P(C)(C)=O)n1 [Example 94, (E)-3-(1-aminocyclopropyl)-N-(3-((5-chloro-4-((2-(dimethylphosphoryl)phenyl)amino)pyrimidin-2-yl)amino)-4-methoxyphenyl)acrylamide]	≥ 250	≥ 250	≥ 250	101 to 250	< 50	< 50	–	–	–	–
C=C(C(=O)Nc1ccc(OC)c(Nc2ncc(Cl)c(Nc3ccccc3P(C)(C)=O)n2)c1)C(F)(F)F [Example 82, N-(3-((5-chloro-4-((2-(dimethylphosphoryl)phenyl)amino)pyrimidin-2-yl)amino)-4-methoxyphenyl)-2-(trifluoromethyl)acrylamide]	≥ 250	≥ 250	≥ 250	< 50	< 50	< 50	–	–	–	–
COc1ccc(NC(=O)C#CC(C)(C)N2CCCC2)cc1Nc1ncc(Cl)c(Nc2ccccc2P(C)(C)=O)n1 [Example 91, N-(3-((5-chloro-4-((2-(dimethylphosphoryl)phenyl)amino)pyrimidin-2-yl)amino)-4-methoxyphenyl)-4-methyl-4-(pyrrolidin-1-yl)pent-2-ynamide]	≥ 250	< 50	< 50	< 50	< 50	< 50	–	–	–	–
C=CC(=O)Nc1cc(Nc2ncc(Cl)c(Nc3ccccc3P(C)(C)=O)n2)c(OC)cc1OCCN1CCOCC1 [Example 4, N-(5-((5-chloro-4-((2-(dimethylphosphoryl)phenyl)amino)pyrimidin-2-yl)amino)-4-methoxy-2-(2-morpholinoethoxy)phenyl)acrylamide]	≥ 250	50 to 100	101 to 250	< 50	< 50	< 50	–	–	–	–
C=CC(=O)Nc1cc(Nc2ncc(Cl)c(Nc3ccccc3P(C)(C)=O)n2)c(OC)cc1C#CCN(C)C(C)C [Example 166, N-(5-((5-chloro-4-((2-(dimethylphosphoryl)phenyl)amino)pyrimidin-2-yl)amino)-2-(3-(isopropyl(methyl)amino)prop-1-yn-1-yl)-4-methoxyphenyl)acrylamide]	–	< 50	< 50	–	–	–	≥ 250	< 50	< 50	< 50
COc1ccc(NC(=O)/C=C/C(=O)N2CCN(C)CC2)cc1Nc1ncc(Cl)c(Nc2ccccc2P(C)(C)=O)n1 [Example 59, (E)—N-(3-((5-chloro-4-((2-(dimethylphosphoryl)phenyl)amino)pyrimidin-2-yl)amino)-4-methoxyphenyl)-4-(4-methylpiperazin-1-yl)-4-oxobut-2-enamide]	≥ 250	101 to 250	≥ 250	< 50	< 50	< 50	–	–	–	–
C=CC(=O)Nc1cc(Nc2ncc(Cl)c(Nc3ccccc3P(C)(C)=O)n2)c(OC)cc1C [Example 133, N-(5-((5-chloro-4-((2-(dimethylphosphoryl)phenyl)amino)pyrimidin-2-yl)amino)-4-methoxy-2-methylphenyl)acrylamide]	–	< 50	< 50	–	–	–	≥ 250	< 50	< 50	< 50
